# Patent US8895037B2, “Administation of ellagic acid for the treatment of canities” (L'Oreal, priority 2006, dated 2014)
# Columns and labels:
# [1] = system: normal human melanocytes (NHMs); experiment: Accelerated senescence induced in vitro by a chronic H2O2 stress, viability by Alamar Blue; format: cell-based; details: for % relative to the control / average fluorescence: Alamar Blue on D7
# Description: 1-C-1. Protocol for accelerated senescence induced in vitro by a chronic H2O2 stress:
# (According to O. Toussaint, E. E. Medrano and T. von Zglinicki, Experimental Gerontology 2000, 35, 927-945).
# The normal human melanocytes (NHMs) were inoculated at D0 at the density of 0.8×10^4 cells/cm^2. After adhesion of the cells (3 h) the active agent studied was added to the culture medium. H2O2 (250 μM) was added to the culture medium over 1 hour, at D1, D2 and D3. In addition, the culture medium was renewed every two days without addition of stress. On D7, the number of viable cells was measured using Alamar Blue (UP669413 UPTIMA, Interchim) according to the instructions of the supplier.
# [2] = system: normal human melanocytes (NHMs); experiment: Reactive oxygen species (ROS) generated by an H2O2 stress in cultured normal human melanocytes; format: cell-based; details: NHM pretreated 12 h/18 h, 250 μM H2O2, fluorescence after 15 min; FIG. 1
# Description: 1-A-1. Protocol for measuring the reactive oxygen species (ROS) generated by an H2O2 stress in cultured normal human melanocytes (NHMs) The normal human melanocytes (NHMs) were inoculated at D0 at the density of 4×10^4 cells/cm^2. At D1, the culture medium was replaced with the 10 μM solution of 6-carboxy-2',7'-dichlorodihydrofluorescein diacetate, di[acetoxymethyl ester] in PBS (H2DCFDA, C2938, Molecular Probes). After 20 min the H2DCFDA solution was replaced with the culture medium. The NHMs were left for 30 min before adding the H2O2 solution (250 μM). The fluorescence was measured after 15 min in a fluoroscan (excitation: 485 nm, emission: 538 nm). The compounds studied were used depending on their properties (concentration, preincubation time). N-Acetylcysteine ([…], Sigma) was used as a reference molecule. The melanocytes were pretreated, 12 h/18 h at 37° C., with the compound studied in the culture medium, before being brought into contact for 20 minutes with H2DCFDA (10 μM in PBS). […] The fluorescence was measured after 15 min in a fluoroscan (excitation: 485 nm, emission: 538 nm). The results represent the crude fluorescence data, from which the autofluorescence values of “blank” cells, expressed in fluorescence units (fu), obtained during a representative experiment, have been deducted.
# [3] = (no treatment, NAC, EA), chronic H2O2 250 μM at D1, D2, D3
Compound,"% relative to the control ([1]; (Control, NAC, EA))","average fluorescence ([1]; (Control, NAC, EA))","% relative to the control [1, 3]","average fluorescence [1, 3]","viability after accelerated senescence induced by chronic H2O2 stress ([1]; NHM, H2O2 250 μM at D1, D2, D3, read on D7, FIG. 3)","reactive oxygen species induced by H2O2 (fluorescence, H2DCFDA) [2]"
"CC(=O)N[C@@H](CS)C(=O)O [NAC, N-Acetylcysteine, reference compound]",106%,8056.00,38%,2869.00,–,–
"O=c1oc2c(O)c(O)cc3c(=O)oc4c(O)c(O)cc1c4c23 [ellagic acid, 2,3,7,8-tetrahydroxy(1)benzopyrano(5,4,3-CDE)(1)benzopyran-5,10-dione]",97%,7343.67,39%,2934.00,significant increase in viability,decrease of the reactive oxygen species
